Tests used:
Assay type in all cases: functional
[1] = test system: MCF7; assay: Growth inhibition of human MCF7 cells assessed as cell growth at 10 uM incubated for 48 hrs by sulforhodamine B assay relative to control; conditions: MCF7, 48 h, read-out: Activity
[2] = test system: HCC 2998; assay: Growth inhibition of human HCC2998 cells assessed as cell growth at 10 uM incubated for 48 hrs by sulforhodamine B assay relative to control; conditions: HCC 2998, 48 h, read-out: Activity
[3] = test system: BT-549; assay: Growth inhibition of human BT549 cells assessed as cell growth at 10 uM incubated for 48 hrs by sulforhodamine B assay relative to control; conditions: BT-549, 48 h, read-out: Activity
[4] = test system: HCT-116; assay: Growth inhibition of human HCT116 cells assessed as cell growth at 10 uM incubated for 48 hrs by sulforhodamine B assay relative to control; conditions: HCT-116, 48 h, read-out: Activity
[5] = test system: OVCAR-4; assay: Growth inhibition of human OVCAR4 cells assessed as cell growth at 10 uM incubated for 48 hrs by sulforhodamine B assay relative to control; conditions: OVCAR-4, 48 h, read-out: Activity
[6] = test system: UO-31; assay: Growth inhibition of human UO31 cells assessed as cell growth at 10 uM incubated for 48 hrs by sulforhodamine B assay relative to control; conditions: UO-31, 48 h, read-out: Activity
[7] = test system: HL-60(TB); assay: Growth inhibition of human HL-60(TB) cells assessed as cell growth at 10 uM incubated for 48 hrs by sulforhodamine B assay relative to control; conditions: HL-60, 48 h, read-out: Activity
[8] = test system: SK-OV-3; assay: Growth inhibition of human SKOV3 cells assessed as cell growth at 10 uM incubated for 48 hrs by sulforhodamine B assay relative to control; conditions: SK-OV-3, 48 h, read-out: Activity
[9] = test system: Hs-578T; assay: Growth inhibition of human Hs 578T cells assessed as cell growth at 10 uM incubated for 48 hrs by sulforhodamine B assay relative to control; conditions: read-out: Activity
[10] = test system: K562; assay: Growth inhibition of human K562 cells assessed as cell growth at 10 uM incubated for 48 hrs by sulforhodamine B assay relative to control; conditions: K562, 48 h, read-out: Activity
[11] = test system: OVCAR-8; assay: Growth inhibition of human OVCAR8 cells assessed as cell growth at 10 uM incubated for 48 hrs by sulforhodamine B assay relative to control; conditions: OVCAR-8, 48 h, read-out: Activity
[12] = test system: IGROV-1; assay: Growth inhibition of human IGROV1 cells assessed as cell growth at 10 uM incubated for 48 hrs by sulforhodamine B assay relative to control; conditions: IGROV-1, 48 h, read-out: Activity
[13] = test system: T47D; assay: Growth inhibition of human T47D cells assessed as cell growth at 10 uM incubated for 48 hrs by sulforhodamine B assay relative to control; conditions: read-out: Activity
[14] = test system: HOP-62; assay: Growth inhibition of human HOP62 cells assessed as cell growth at 10 uM incubated for 48 hrs by sulforhodamine B assay relative to control; conditions: HOP-62, 48 h, read-out: Activity
[15] = test system: NCI-H23; assay: Growth inhibition of human NCI-H23 cells assessed as cell growth at 10 uM incubated for 48 hrs by sulforhodamine B assay relative to control; conditions: NCI-H23, 48 h, read-out: Activity
[16] = test system: NCI-H226; assay: Growth inhibition of human NCI-H226 cells assessed as cell growth at 10 uM incubated for 48 hrs by sulforhodamine B assay relative to control; conditions: NCI-H226, 48 h, read-out: Activity
[17] = test system: SN12C; assay: Growth inhibition of human SN12C cells assessed as cell growth at 10 uM incubated for 48 hrs by sulforhodamine B assay relative to control; conditions: read-out: Activity
[18] = test system: NCI-H460; assay: Growth inhibition of human NCI-H460 cells assessed as cell growth at 10 uM incubated for 48 hrs by sulforhodamine B assay relative to control; conditions: NCI-H460, 48 h, read-out: Activity
[19] = test system: CAKI-1; assay: Growth inhibition of human Caki1 cells assessed as cell growth at 10 uM incubated for 48 hrs by sulforhodamine B assay relative to control; conditions: CAKI-1, 48 h, read-out: Activity
[20] = test system: SK-MEL-28; assay: Growth inhibition of human SK-MEL-28 cells assessed as cell growth at 10 uM incubated for 48 hrs by sulforhodamine B assay relative to control; conditions: SK-MEL-28, 48 h, read-out: Activity
[21] = test system: MDA-MB-435; assay: Growth inhibition of human MDA-MB-435 cells assessed as cell growth at 10 uM incubated for 48 hrs by sulforhodamine B assay relative to control; conditions: MDA-MB-435, 48 h, read-out: Activity
[22] = test system: OVCAR-3; assay: Growth inhibition of human OVCAR3 cells assessed as cell growth at 10 uM incubated for 48 hrs by sulforhodamine B assay relative to control; conditions: OVCAR-3, 48 h, read-out: Activity
[23] = test system: SF-539; assay: Growth inhibition of human SF539 cells assessed as cell growth at 10 uM incubated for 48 hrs by sulforhodamine B assay relative to control; conditions: SF-539, 48 h, read-out: Activity
[24] = test system: SR; assay: Growth inhibition of human SR cells assessed as cell growth at 10 uM incubated for 48 hrs by sulforhodamine B assay relative to control; conditions: read-out: Activity
[25] = test system: HT-29; assay: Growth inhibition of human HT-29 cells assessed as cell growth at 10 uM incubated for 48 hrs by sulforhodamine B assay relative to control; conditions: HT-29, 48 h, read-out: Activity
[26] = test system: UACC-257; assay: Growth inhibition of human UACC257 cells assessed as cell growth at 10 uM incubated for 48 hrs by sulforhodamine B assay relative to control; conditions: UACC-257, 48 h, read-out: Activity
[27] = test system: ACHN; assay: Growth inhibition of human ACHN cells assessed as cell growth at 10 uM incubated for 48 hrs by sulforhodamine B assay relative to control; conditions: read-out: Activity
[28] = test system: NCI-H522; assay: Growth inhibition of human NCI-H522 cells assessed as cell growth at 10 uM incubated for 48 hrs by sulforhodamine B assay relative to control; conditions: NCI-H522, 48 h, read-out: Activity
[29] = test system: PC-3; assay: Growth inhibition of human PC3 cells assessed as cell growth at 10 uM incubated for 48 hrs by sulforhodamine B assay relative to control; conditions: PC-3, 48 h, read-out: Activity
[30] = test system: SK-MEL-5; assay: Growth inhibition of human SK-MEL-5 cells assessed as cell growth at 10 uM incubated for 48 hrs by sulforhodamine B assay relative to control; conditions: SK-MEL-5, 48 h, read-out: Activity
[31] = test system: Malme-3M; assay: Growth inhibition of human MALME-3M cells assessed as cell growth at 10 uM incubated for 48 hrs by sulforhodamine B assay relative to control; conditions: read-out: Activity
[32] = test system: MDA-MB-468; assay: Growth inhibition of human MDA-MB-468 cells assessed as cell growth at 10 uM incubated for 48 hrs by sulforhodamine B assay relative to control; conditions: MDA-MB-468, 48 h, read-out: Activity
[33] = test system: OVCAR-5; assay: Growth inhibition of human OVCAR5 cells assessed as cell growth at 10 uM incubated for 48 hrs by sulforhodamine B assay relative to control; conditions: OVCAR-5, 48 h, read-out: Activity

COc1cc2cc(Oc3ccc(NC(=O)Nc4cccc(C(F)(F)F)c4)cc3)c(C)nc2cc1OC
growth at 10 µM [1]: 6.81%
growth at 10 µM [2]: 25.4%
growth at 10 µM [3]: -8.13%
growth at 10 µM [4]: 6.71%
growth at 10 µM [5]: 31.7%
growth at 10 µM [6]: 11.3%
growth at 10 µM [7]: -24.8%
growth at 10 µM [8]: 3.35%
growth at 10 µM [9]: 22.6%
growth at 10 µM [10]: 11.5%
growth at 10 µM [11]: 8.32%
growth at 10 µM [12]: 8.77%
growth at 10 µM [13]: 27.8%
growth at 10 µM [14]: 25%
growth at 10 µM [15]: 6.78%
growth at 10 µM [16]: -23.5%
growth at 10 µM [17]: 17.2%
growth at 10 µM [18]: 2.68%
growth at 10 µM [19]: 9.13%
growth at 10 µM [20]: 26.7%
growth at 10 µM [21]: 7.23%
growth at 10 µM [22]: -0.54%
growth at 10 µM [23]: 11.7%
growth at 10 µM [24]: -6.62%
growth at 10 µM [25]: 6.56%
growth at 10 µM [26]: -14.5%
growth at 10 µM [27]: 11.2%
growth at 10 µM [28]: -17.4%
growth at 10 µM [29]: 0.08%
growth at 10 µM [30]: -86.1%
growth at 10 µM [31]: 7.22%
growth at 10 µM [32]: -32.5%
growth at 10 µM [33]: 27.8%

COc1cc2cc(Oc3ccc(NC(=O)Nc4ccc(Cl)c(C(F)(F)F)c4)cc3)c(C)nc2cc1OC
growth at 10 µM [1]: 2.59%
growth at 10 µM [2]: -13.1%
growth at 10 µM [3]: -38.7%
growth at 10 µM [4]: -87.3%
growth at 10 µM [5]: 17.1%
growth at 10 µM [6]: -45.1%
growth at 10 µM [7]: -40.6%
growth at 10 µM [8]: -4.09%
growth at 10 µM [9]: 2.5%
growth at 10 µM [10]: -9.54%
growth at 10 µM [11]: 7.34%
growth at 10 µM [12]: -7.69%
growth at 10 µM [13]: 21.4%
growth at 10 µM [14]: -51%
growth at 10 µM [15]: 3.46%
growth at 10 µM [16]: 4.49%
growth at 10 µM [17]: 13.2%
growth at 10 µM [18]: -19.8%
growth at 10 µM [19]: -8.92%
growth at 10 µM [20]: -35.9%
growth at 10 µM [21]: -25.7%
growth at 10 µM [22]: -27.3%
growth at 10 µM [23]: -36.2%
growth at 10 µM [24]: -32.5%
growth at 10 µM [25]: -24.9%
growth at 10 µM [26]: -12.5%
growth at 10 µM [27]: 13.6%
growth at 10 µM [28]: -43.6%
growth at 10 µM [29]: -0.61%
growth at 10 µM [30]: -73.4%
growth at 10 µM [31]: -23%
growth at 10 µM [32]: -42.7%
growth at 10 µM [33]: 18%

COc1cc2cc(Oc3ccc(NC(=O)Nc4ccc(Cl)c(Cl)c4)cc3)c(C)nc2cc1OC
growth at 10 µM [1]: 13.8%
growth at 10 µM [2]: 37.6%
growth at 10 µM [3]: 28.1%
growth at 10 µM [4]: 10.5%
growth at 10 µM [5]: 31.9%
growth at 10 µM [6]: 3.69%
growth at 10 µM [7]: 9.64%
growth at 10 µM [8]: 28.6%
growth at 10 µM [9]: 45.1%
growth at 10 µM [10]: 12.7%
growth at 10 µM [11]: 15%
growth at 10 µM [12]: 18.6%
growth at 10 µM [13]: 60.9%
growth at 10 µM [14]: 55.2%
growth at 10 µM [15]: 8.26%
growth at 10 µM [16]: 7.74%
growth at 10 µM [17]: 22.1%
growth at 10 µM [18]: 3.68%
growth at 10 µM [19]: 21.8%
growth at 10 µM [20]: 44.6%
growth at 10 µM [21]: 12.3%
growth at 10 µM [22]: -10%
growth at 10 µM [23]: 38.5%
growth at 10 µM [24]: 18%
growth at 10 µM [25]: 10.9%
growth at 10 µM [26]: 1.38%
growth at 10 µM [27]: 16.4%
growth at 10 µM [28]: -13.8%
growth at 10 µM [29]: 4.12%
growth at 10 µM [30]: -35%
growth at 10 µM [31]: 14.9%
growth at 10 µM [32]: -16.7%
growth at 10 µM [33]: 53%
